{
  "source": "PubChem BioAssay (NCI)",
  "assay_in_all_cases": "inhibition of tumour cell growth, NCI panel, 48 h",
  "key": {"SR leukemia": {"test_system": "SR leukemia"}, "NCI-H23 lung": {"test_system": "NCI-H23 lung"}, "TK-10 renal": {"test_system": "TK-10 renal"}, "HCC-2998 colon": {"test_system": "HCC-2998 colon"}, "IGROV1 ovarian": {"test_system": "IGROV1 ovarian"}, "RPMI-8226 leukemia": {"test_system": "RPMI-8226 leukemia"}, "SK-MEL-5 melanoma": {"test_system": "SK-MEL-5 melanoma"}, "SF-295 CNS": {"test_system": "SF-295 CNS"}, "ACHN renal": {"test_system": "ACHN renal"}, "NCI-H522 lung": {"test_system": "NCI-H522 lung"}, "M14 melanoma": {"test_system": "M14 melanoma"}, "BT-549 breast": {"test_system": "BT-549 breast"}, "CCRF-CEM leukemia": {"test_system": "CCRF-CEM leukemia"}, "HCT-116 colon": {"test_system": "HCT-116 colon"}, "HOP-62 NSCLC": {"test_system": "HOP-62 NSCLC"}, "U251 CNS": {"test_system": "U251 CNS"}, "SK-OV-3 ovarian": {"test_system": "SK-OV-3 ovarian"}, "COLO 205 colon": {"test_system": "COLO 205 colon"}, "SNB-19 CNS": {"test_system": "SNB-19 CNS"}, "UACC-62 melanoma": {"test_system": "UACC-62 melanoma"}, "SK-MEL-28 melanoma": {"test_system": "SK-MEL-28 melanoma"}, "MCF7 breast": {"test_system": "MCF7 breast"}, "EKVX NSCLC": {"test_system": "EKVX NSCLC"}, "OVCAR-4 ovarian": {"test_system": "OVCAR-4 ovarian"}, "786-0 renal": {"test_system": "786-0 renal"}, "OVCAR-8 ovarian": {"test_system": "OVCAR-8 ovarian"}, "HL-60(TB) leukemia": {"test_system": "HL-60(TB) leukemia"}, "NCI-H460 lung": {"test_system": "NCI-H460 lung"}, "NCI/ADR-RES ovarian": {"test_system": "NCI/ADR-RES ovarian"}, "SF-539 CNS": {"test_system": "SF-539 CNS"}, "UACC-257 melanoma": {"test_system": "UACC-257 melanoma"}, "CAKI-1 renal": {"test_system": "CAKI-1 renal"}, "DU-145 prostate": {"test_system": "DU-145 prostate"}, "UO-31 renal": {"test_system": "UO-31 renal"}, "K-562 leukemia": {"test_system": "K-562 leukemia"}, "SNB-75 CNS": {"test_system": "SNB-75 CNS"}, "PC-3 prostate": {"test_system": "PC-3 prostate"}, "A549 NSCLC": {"test_system": "A549 NSCLC"}, "SF-268 CNS": {"test_system": "SF-268 CNS"}, "SK-MEL-2 melanoma": {"test_system": "SK-MEL-2 melanoma"}, "HCT-15 colon": {"test_system": "HCT-15 colon"}, "MALME-3M melanoma": {"test_system": "MALME-3M melanoma"}, "SW-620 colon": {"test_system": "SW-620 colon"}, "RXF 393 renal": {"test_system": "RXF 393 renal"}, "OVCAR-3 ovarian": {"test_system": "OVCAR-3 ovarian"}, "MOLT-4 leukemia": {"test_system": "MOLT-4 leukemia"}, "HT29 colon": {"test_system": "HT29 colon"}, "NCI-H226 lung": {"test_system": "NCI-H226 lung"}, "OVCAR-5 ovarian": {"test_system": "OVCAR-5 ovarian"}},
  "note": "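Method: 48-hour compound exposure of cells in 96-well plates, five concentrations, linear interpolation of endpoints. Definition used: TGI = concentration required for complete inhibition of growth.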",
  "data": [
    {"smiles": "CC(C)=NNC=N/C(C#N)=C(\\N)C#N", "values": [
      {"measurement": "TGI", "setting": "SR leukemia", "result": "> 100", "unit": "µM"},
      {"measurement": "TGI", "setting": "NCI-H23 lung", "result": "> 100", "unit": "µM"},
      {"measurement": "TGI", "setting": "TK-10 renal", "result": "> 100", "unit": "µM"},
      {"measurement": "TGI", "setting": "HCC-2998 colon", "result": 1.21, "unit": "µM"},
      {"measurement": "TGI", "setting": "IGROV1 ovarian", "result": "> 100", "unit": "µM"},
      {"measurement": "TGI", "setting": "RPMI-8226 leukemia", "result": "> 100", "unit": "µM"},
      {"measurement": "TGI", "setting": "SK-MEL-5 melanoma", "result": "> 100", "unit": "µM"},
      {"measurement": "TGI", "setting": "SF-295 CNS", "result": "> 100", "unit": "µM"},
      {"measurement": "TGI", "setting": "ACHN renal", "result": "> 100", "unit": "µM"},
      {"measurement": "TGI", "setting": "NCI-H522 lung", "result": "> 100", "unit": "µM"},
      {"measurement": "TGI", "setting": "M14 melanoma", "result": "> 100", "unit": "µM"},
      {"measurement": "TGI", "setting": "BT-549 breast", "result": "> 100", "unit": "µM"},
      {"measurement": "TGI", "setting": "CCRF-CEM leukemia", "result": "> 100", "unit": "µM"},
      {"measurement": "TGI", "setting": "HCT-116 colon", "result": "> 100", "unit": "µM"},
      {"measurement": "TGI", "setting": "HOP-62 NSCLC", "result": "> 100", "unit": "µM"},
      {"measurement": "TGI", "setting": "U251 CNS", "result": "> 100", "unit": "µM"},
      {"measurement": "TGI", "setting": "SK-OV-3 ovarian", "result": "> 100", "unit": "µM"},
      {"measurement": "TGI", "setting": "COLO 205 colon", "result": "> 100", "unit": "µM"},
      {"measurement": "TGI", "setting": "SNB-19 CNS", "result": "> 100", "unit": "µM"},
      {"measurement": "TGI", "setting": "UACC-62 melanoma", "result": "> 100", "unit": "µM"},
      {"measurement": "TGI", "setting": "SK-MEL-28 melanoma", "result": "> 100", "unit": "µM"},
      {"measurement": "TGI", "setting": "MCF7 breast", "result": "> 100", "unit": "µM"},
      {"measurement": "TGI", "setting": "EKVX NSCLC", "result": "> 100", "unit": "µM"},
      {"measurement": "TGI", "setting": "OVCAR-4 ovarian", "result": "> 100", "unit": "µM"},
      {"measurement": "TGI", "setting": "786-0 renal", "result": "> 100", "unit": "µM"},
      {"measurement": "TGI", "setting": "OVCAR-8 ovarian", "result": "> 100", "unit": "µM"},
      {"measurement": "TGI", "setting": "HL-60(TB) leukemia", "result": "> 100", "unit": "µM"},
      {"measurement": "TGI", "setting": "NCI-H460 lung", "result": "> 100", "unit": "µM"},
      {"measurement": "TGI", "setting": "NCI/ADR-RES ovarian", "result": "> 100", "unit": "µM"},
      {"measurement": "TGI", "setting": "SF-539 CNS", "result": "> 100", "unit": "µM"},
      {"measurement": "TGI", "setting": "UACC-257 melanoma", "result": "> 100", "unit": "µM"},
      {"measurement": "TGI", "setting": "CAKI-1 renal", "result": "> 100", "unit": "µM"},
      {"measurement": "TGI", "setting": "DU-145 prostate", "result": "> 100", "unit": "µM"},
      {"measurement": "TGI", "setting": "UO-31 renal", "result": "> 100", "unit": "µM"},
      {"measurement": "TGI", "setting": "K-562 leukemia", "result": "> 100", "unit": "µM"},
      {"measurement": "TGI", "setting": "SNB-75 CNS", "result": "> 100", "unit": "µM"},
      {"measurement": "TGI", "setting": "PC-3 prostate", "result": "> 100", "unit": "µM"},
      {"measurement": "TGI", "setting": "A549 NSCLC", "result": "> 100", "unit": "µM"},
      {"measurement": "TGI", "setting": "SF-268 CNS", "result": "> 100", "unit": "µM"},
      {"measurement": "TGI", "setting": "SK-MEL-2 melanoma", "result": "> 100", "unit": "µM"},
      {"measurement": "TGI", "setting": "HCT-15 colon", "result": "> 100", "unit": "µM"},
      {"measurement": "TGI", "setting": "MALME-3M melanoma", "result": "> 100", "unit": "µM"},
      {"measurement": "TGI", "setting": "SW-620 colon", "result": "> 100", "unit": "µM"},
      {"measurement": "TGI", "setting": "RXF 393 renal", "result": "> 100", "unit": "µM"},
      {"measurement": "TGI", "setting": "OVCAR-3 ovarian", "result": "> 100", "unit": "µM"},
      {"measurement": "TGI", "setting": "MOLT-4 leukemia", "result": "> 100", "unit": "µM"},
      {"measurement": "TGI", "setting": "HT29 colon", "result": "> 100", "unit": "µM"},
      {"measurement": "TGI", "setting": "NCI-H226 lung", "result": "> 100", "unit": "µM"},
      {"measurement": "TGI", "setting": "OVCAR-5 ovarian", "result": "> 100", "unit": "µM"}
    ]}
  ]
}
